In patent publication US20110183928A1 (BAYER SCHERING PHARMA AKTIENGESELLSCHAFT, priority 2008, published 2011):

Key:
Assay type in all cases: cell-based
[1] = molecular target: T1, human mineralocorticoid receptor (MR) (Homo sapiens, UniProt P08235); assay: Cellular in vitro assay, GAL4-MR chimera luciferase reporter in CHO K1 cells (inhibitory MR activity); details: GAL4-MR ligand-binding domain chimera, agonist aldosterone
T1 construct: expressed in transfected cells; host or cells: CHO K1
T1 sequence (P08235 734-984 limits assumed): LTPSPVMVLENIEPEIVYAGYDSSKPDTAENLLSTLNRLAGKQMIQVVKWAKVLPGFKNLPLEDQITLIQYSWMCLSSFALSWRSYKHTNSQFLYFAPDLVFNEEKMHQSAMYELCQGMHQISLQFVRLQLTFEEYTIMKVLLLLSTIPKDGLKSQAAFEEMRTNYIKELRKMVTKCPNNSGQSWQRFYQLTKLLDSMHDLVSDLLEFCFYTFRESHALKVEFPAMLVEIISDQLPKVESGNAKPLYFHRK
From the text: (§1) 1. Cellular In Vitro Assay to Determine the Inhibitory MR Activity and MR Selectivity Compared with Other Steroid Hormone Receptors
(§2) Antagonists of the human mineralocorticoid receptor (MR) are identified, and the efficacy of the compounds described herein is quantified with the aid of a recombinant cell line. The cell is originally derived from a hamster ovary epithelial cell (Chinese Hamster Ovary, CHO K1, ATCC: American Type Culture Collection, VA 20108, USA).
(§3) An established chimera system in which the ligand-binding domains of human steroid hormone receptors are fused to the DNA-binding domain of the yeast transcription factor GAL4 is used in this CHO K1 cell line. The GAL4-steroid hormone receptor chimeras produced in this way are cotransfected and stably expressed with a reporter construct in the CHO cells.
(§4) To generate the GAL4-steroid hormone receptor chimeras, the GAL4 DNA-binding domain (amino acids 1-147) from the vector pFC2-dbd (from Stratagene) is cloned with the PCR-amplified ligand-binding domains of the mineralocorticoid receptor (MR, amino acids 734-985), of the glucocorticoid receptor (GR, amino acids 443-777), of the progesterone receptor (PR, amino acids 680-933) and of the androgen receptor (AR, amino acids 667-919) into the vector pIRES2 (from Clontech). The reporter construct, which contains five copies of the GAL4 binding site upstream of a thymidine kinase promoter, leads to expression of firefly luciferase (Photinus pyralis) after activation and binding of the GAL4-steroid hormone receptor chimeras by the respective specific agonists aldosterone (MR), dexamethasone (GR), progesterone (PR) and dihydrotestosterone (AR).
(§5) The MR, GR, PR and AR cells are plated out in medium (Optimem, 2.5% FCS, 2 mM glutamine, 10 mM HEPES) in 96-well (or 384- or 1536-well) microtiter plates the day before the assay, and are kept in a cell incubator (96% air humidity, 5% v/v CO2, 37° C.). On the day of the assay, the substances to be tested are taken up in the abovementioned medium and added to the cells. About 10 to 30 minutes after addition of the test substances, the respective specific agonists of the steroid hormone receptors are added. After a further incubation time of 5 to 6 hours, the luciferase activity is measured with the aid of a video camera. The relative light units measured as a function of the substance concentration give a sigmoidal stimulation curve. The IC50 values are calculated with the aid of the computer program GraphPad PRISM (Version 3.02).

[2] = molecular target: T2, glucocorticoid receptor (GR) (Homo sapiens, UniProt P04150); assay: Cellular in vitro assay, GAL4-GR chimera luciferase reporter in CHO K1 cells (selectivity); details: GAL4-GR ligand-binding domain chimera, agonist dexamethasone
T2 construct: of the glucocorticoid receptor (GR, amino acids 443-777); expressed in transfected cells; host or cells: CHO K1
T2 sequence (P04150 443-777): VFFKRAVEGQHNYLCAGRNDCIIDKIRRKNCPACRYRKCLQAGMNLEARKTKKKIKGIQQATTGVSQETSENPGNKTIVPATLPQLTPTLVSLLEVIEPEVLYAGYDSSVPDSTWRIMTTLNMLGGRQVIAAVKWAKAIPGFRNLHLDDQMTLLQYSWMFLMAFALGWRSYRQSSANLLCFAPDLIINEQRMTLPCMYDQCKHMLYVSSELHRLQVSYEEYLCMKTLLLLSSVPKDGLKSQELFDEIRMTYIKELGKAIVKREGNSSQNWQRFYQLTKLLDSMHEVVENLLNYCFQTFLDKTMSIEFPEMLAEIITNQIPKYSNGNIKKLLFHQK
From the text: as §1, §2, §3, §4, §5

[3] = molecular target: T3, androgen receptor (AR) (Homo sapiens, UniProt P10275); assay: Cellular in vitro assay, GAL4-AR chimera luciferase reporter in CHO K1 cells (selectivity); details: GAL4-AR ligand-binding domain chimera, agonist dihydrotestosterone
T3 construct: of the androgen receptor (AR, amino acids 667-919); expressed in transfected cells; host or cells: CHO K1
T3 sequence (P10275 667-919): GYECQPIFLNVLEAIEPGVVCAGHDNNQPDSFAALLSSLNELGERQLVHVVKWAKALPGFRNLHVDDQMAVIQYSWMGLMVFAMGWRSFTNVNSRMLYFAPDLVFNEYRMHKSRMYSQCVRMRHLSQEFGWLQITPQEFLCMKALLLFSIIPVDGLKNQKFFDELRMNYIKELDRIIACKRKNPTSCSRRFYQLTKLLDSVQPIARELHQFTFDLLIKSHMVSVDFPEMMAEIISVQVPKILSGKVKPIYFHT
From the text: as §1, §2, §3, §4, §5

[4] = molecular target: T4, progesterone receptor (PR) (Homo sapiens, UniProt P06401); assay: Cellular in vitro assay, GAL4-PR chimera luciferase reporter in CHO K1 cells (selectivity); details: GAL4-PR ligand-binding domain chimera, agonist progesterone
T4 construct: of the progesterone receptor (PR, amino acids 680-933); expressed in transfected cells; host or cells: CHO K1
T4 sequence (P06401 680-933): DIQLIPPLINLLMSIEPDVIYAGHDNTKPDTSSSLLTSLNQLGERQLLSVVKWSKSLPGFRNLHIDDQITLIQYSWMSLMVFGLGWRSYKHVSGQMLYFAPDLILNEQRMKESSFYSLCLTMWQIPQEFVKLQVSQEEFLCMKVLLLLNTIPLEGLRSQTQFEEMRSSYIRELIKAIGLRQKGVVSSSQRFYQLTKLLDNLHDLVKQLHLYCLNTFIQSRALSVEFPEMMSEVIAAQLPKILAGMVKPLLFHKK
From the text: as §1, §2, §3, §4, §5

Row | Structure (SMILES) | IC50 [1] | IC50 [2] | IC50 [3] | IC50 [4]
1 | Cc1cccc2c(C(CCCC#N)c3ccc(C(F)(F)F)cc3)c[nH]c12 (single isomer, unassigned) [Example 8-1, 5-(7-Methyl-1H-indol-3-yl)-5-[4-(trifluoromethyl)phenyl]pentanenitrile] | 200 nM | 5100 nM | 1530 nM | 2710 nM
2 | CCc1cccc2c(C(CCCO)c3ccc(C(F)(F)F)cc3)c[nH]c12 (single isomer, unassigned) [Example 3-1, 4-(7-Ethyl-1H-indol-3-yl)-4-[4-(trifluoromethyl)phenyl]butan-1-ol] | 420 nM | 6470 nM | 3650 nM | 5870 nM
3 | CS(=O)(=O)Nc1cccc2c(C(CCO)c3ccc(C(F)(F)F)cc3)c[nH]c12 (stereo not shown) [Example 16, N-(3-{3-Hydroxy-1-[4-(trifluoromethyl)phenyl]propyl}-1H-indol-7-yl)methanesulfonamide] | 330 nM | 700 nM |  | 
4 | CCc1cccc2c(C(CCCC#N)c3ccc(C(F)(F)F)cc3)c[nH]c12 (single isomer, unassigned) [Example 4-1, 5-(7-Ethyl-1H-indol-3-yl)-5-[4-(trifluoromethyl)phenyl]pentanenitrile] | 140 nM | 2340 nM | 2000 nM | 1740 nM
5 | CS(=O)(=O)Nc1cccc2c(C(CCC#N)c3ccc(C(F)(F)F)cc3)c[nH]c12 (single isomer, unassigned) [Example 17-1] | 20 nM | 2210 nM | 2270 nM | 4500 nM
6 | CCc1cccc2c(C(CCC#N)c3ccc4ccccc4c3)c[nH]c12 (stereo not shown) [Example 34] | 90 nM | 390 nM | 4200 nM | 3350 nM
